The target of the assay is xanthine oxidase (UniProt P80457). Briefly: Inhibition of production of uric acid by xanthine/xanthine oxidase. The assay is classed as biochemical. Conditions: xanthine oxidase 0.024 units/mL, 100 μM xanthine, pH 7.5, 25° C.; mean ± SEM of triplicate experiments. The method, then:
Uric acid is produced from xanthine oxidation by xanthine oxidase.
Specifically, the sample and xanthine oxidase (0.024 units/mL) were mixed in 100 mM phosphate buffer (pH 7.5) and preincubated at 25° C. for 10 min. The reaction was initiated by the addition of 100 μM xanthine and incubation was further carried out at 25° C. for 30 min. […] The inhibition of uric acid production A (%) was calculated according to Equation 1. […] [Equation 1]

The IC50 is the midpoint of a concentration-inhibition curve. A high value points to weaker potency.

`COc1cc(CCCO)cc(OC)c1O[C@@H]1OC(COC(=O)/C=C/c2ccc(O)c(O)c2)[C@@H](O)C(O)C1O` (stereo partly shown) [Compound 4, 6′-O-Caffeoyldihydrosyringin] registered an IC50 of 71.1 ± 3.9 µM.

The compound `C/C(=C\CO)CO[C@@H]1OC(COC(=O)/C=C/c2ccc(O)c(O)c2)[C@@H](O)C(O)C1O` (stereo partly shown) [Compound 5] had an IC50 of 80 ± 4.9 µM. The IC50 values of the last two compounds are within 1.5-fold of each other.

Consider `C[C@H](/C=C/[C@@]1(O)[C@H](C)CC(=O)CC1(C)C)OC1OC(COC(=O)/C=C/c2ccc(O)c(O)c2)C(O)C(O)C1O` (stereo partly shown) [Compound 1, 6′-O-caffeoylampelopsisionoside], for which the IC50 was found to be 93 ± 1.7 µM.

`CC(=O)/C=C/C1=C(C)C(O)C(O[C@@H]2OC(COC(=O)/C=C/c3ccc(O)c(O)c3)[C@@H](O)C(O)C2O)CC1(C)C` (stereo partly shown) [Compound 3, 6′-O-Caffeoylsonchuinoside C] had an IC50 of 73.2 ± 5.1 µM.

Values taken from patent US9527879B2, “Aster glehni extracts, fractions or compounds isolated therefrom for the treatment or prevention of hyperuricemia or gout” (KOREA INSTITUTE OF SCIENCE AND TECHNOLOGY, priority 2014, dated 2016).
